Experiments:
Format in all cases: physicochemical
[1] = Storage stability of crystals of compound D at 60° C. and 75% relative humidity (Test Example 2), crystal form by infrared absorption spectrum; conditions: for change of crystal form on storage (summary in words) / stability on storage (summary in words): up to 8 weeks
Description: Type-A crystals, type-B crystals or type-C crystals of compound D were packed in double plastic bags and stored under conditions of 60° C. temperature and 75% relative humidity. Sampling was performed over time, and the crystal form was determined by infrared absorption spectrum measurement.

[2] = Standing of crystals at room temperature
From the text: It is difficult to store type-A crystals of compound D for a long period.
Type-C crystals of compound D can be produced by, for example, leaving type-A crystals of compound D to stand at room temperature.
The standing time may be one week to one year.

[3] = Solubility in organic solvents
From the text: Therefore, compound C is isolated according to any method such as neutralization crystallization in an aqueous solvent.

SMILES	change of crystal form on storage (summary in words) ([1]; 60° C., 75% relative humidity)	crystal form after storage ([1]; double plastic bags, 60° C., 75% relative humidity, 8 weeks)	change of crystal form when left to stand [2]	solubility in various organic solvents [3]	storage stability (general statement) [1]	stability on storage (summary in words) ([1]; 60° C., 75% relative humidity)
NC(=O)c1nc(Br)cnc1O [Type-A crystals, 6-bromo-3-hydroxy-2-pyrazinecarboxamide]	changed to type-C crystals	A + C(major)	converted into type-C crystals			
NC(=O)c1nccnc1O [compound C, 3-hydroxy-2-pyrazinecarboxamide]				hardly soluble		
NC(=O)c1nc(Br)cnc1O [Type-B crystals, 6-bromo-3-hydroxy-2-pyrazinecarboxamide]	not changed				excellent in storage stability	stable
NC(=O)c1nc(Br)cnc1O [Type-C crystals, 6-bromo-3-hydroxy-2-pyrazinecarboxamide]	not changed					stable

Reference: patent US10519117B2, “Crystal forms of 6-bromo-3-hydroxy-2-pyrazinecarboxamide” (FUJIFILM Toyama Chemical Co., Ltd., priority 2015, dated 2019)
